Measurements as given in publication PMC5218480 (PLoS ONE, 2017).

Test system: MV-4-11 cells
Test: Gene expression microarray analysis (Affymetrix PrimeView) and GSEA
Format: cell-based, human
Set-up: RFU PODN (11730768_x_at) / Fold change /veh PODN (11730768_x_at) / RFU LINC00158 (11744669_a_at) / Fold change /veh LINC00158 (11744669_a_at) / RFU DUSP10 (11751237_a_at) / Fold change /veh DUSP10 (11751237_a_at) / RFU ID3 (11757404_x_at) / Fold change /veh ID3 (11757404_x_at) / RFU PLEKHG5 (11737974_s_at) / Fold change /veh PLEKHG5 (11737974_s_at) / RFU LRRC4B (11730491_at) / Fold change /veh LRRC4B (11730491_at) / RFU GIMAP4 (11747438_a_at) / Fold change /veh GIMAP4 (11747438_a_at) / RFU KRT8 (11758183_x_at) / Fold change /veh KRT8 (11758183_x_at) / RFU CNN1 (11734310_a_at) / Fold change /veh CNN1 (11734310_a_at) / RFU VPS37D (11726825_at) / Fold change /veh VPS37D (11726825_at) / RFU C10orf10 (11716522_x_at) / Fold change /veh C10orf10 (11716522_x_at) / RFU KIR2DL2 /// KIR2DL4 /// KIR2DL5A /// KIR2DL5B /// KIR2DS1 /// KIR2DS2 /// KIR2DS3 /// KIR2DS4 /// KIR3DL3 /// KIR3DL3 /// KIR3DS1 (11738374_at) / Fold change /veh KIR2DL2 /// KIR2DL4 /// KIR2DL5A /// KIR2DL5B /// KIR2DS1 /// KIR2DS2 /// KIR2DS3 /// KIR2DS4 /// KIR3DL3 /// KIR3DL3 /// KIR3DS1 (11738374_at) / RFU C1QL1 (11718748_at) / Fold change /veh C1QL1 (11718748_at) / RFU TMPRSS4 (11747572_a_at) / Fold change /veh TMPRSS4 (11747572_a_at) / RFU HAMP (11756126_x_at) / Fold change /veh HAMP (11756126_x_at) / RFU RNFT2 (11725882_a_at) / Fold change /veh RNFT2 (11725882_a_at) / RFU NR4A2 (11747474_a_at) / Fold change /veh NR4A2 (11747474_a_at) / RFU ABCC12 (11746883_a_at) / Fold change /veh ABCC12 (11746883_a_at) / RFU TMEM136 (11760407_x_at) / Fold change /veh TMEM136 (11760407_x_at) / RFU CLDN22 /// WWC2 (11732394_at) / Fold change /veh CLDN22 /// WWC2 (11732394_at) / RFU HLA-DPB1 (11760878_x_at) / Fold change /veh HLA-DPB1 (11760878_x_at) / RFU SPINT1 (11716480_a_at) / Fold change /veh SPINT1 (11716480_a_at) / RFU GAP43 (11754022_s_at) / Fold change /veh GAP43 (11754022_s_at) / RFU A4GNT (11735810_at) / Fold change /veh A4GNT (11735810_at) / RFU PRB3 (11715151_x_at) / Fold change /veh PRB3 (11715151_x_at) / RFU TUBB4B (11761932_at) / Fold change /veh TUBB4B (11761932_at) / RFU CAPN14 (11732068_a_at) / Fold change /veh CAPN14 (11732068_a_at) / RFU TMCC2 (11721928_a_at) / Fold change /veh TMCC2 (11721928_a_at) / RFU IRGQ (11745062_a_at) / Fold change /veh IRGQ (11745062_a_at) / RFU FAM174B (11720279_a_at) / Fold change /veh FAM174B (11720279_a_at) / RFU TMPRSS4 (11748680_a_at) / Fold change /veh TMPRSS4 (11748680_a_at) / RFU FAM212B (11763350_a_at) / Fold change /veh FAM212B (11763350_a_at) / RFU PLEKHG5 (11743358_a_at) / Fold change /veh PLEKHG5 (11743358_a_at) / RFU ZSCAN30 (11745921_a_at) / Fold change /veh ZSCAN30 (11745921_a_at) / RFU CMKLR1 (11741424_a_at) / Fold change /veh CMKLR1 (11741424_a_at) / RFU LOC101060620 /// MAPK8IP1 (11723275_at) / Fold change /veh LOC101060620 /// MAPK8IP1 (11723275_at) / RFU SPTSSB (11747773_x_at) / Fold change /veh SPTSSB (11747773_x_at) / RFU PRSS12 (11739890_at) / Fold change /veh PRSS12 (11739890_at) / RFU BIN1 (11741810_x_at) / Fold change /veh BIN1 (11741810_x_at) / RFU WNT11 (11732464_a_at) / Fold change /veh WNT11 (11732464_a_at) / RFU C10orf10 (11716521_a_at) / Fold change /veh C10orf10 (11716521_a_at) / RFU C5orf56 (11738089_at) / Fold change /veh C5orf56 (11738089_at) / RFU CYB561 (11721691_x_at) / Fold change /veh CYB561 (11721691_x_at) / RFU ANKRD19P (11752326_a_at) / Fold change /veh ANKRD19P (11752326_a_at) / RFU OR2T12 /// OR2T33 /// OR2T8 (11738714_s_at) / Fold change /veh OR2T12 /// OR2T33 /// OR2T8 (11738714_s_at) / RFU VCAN (11748164_a_at) / Fold change /veh VCAN (11748164_a_at) / RFU JSRP1 (11732532_at) / Fold change /veh JSRP1 (11732532_at) / RFU KRTAP10-11 (11738290_x_at) / Fold change /veh KRTAP10-11 (11738290_x_at) / RFU MYO3A (11730013_a_at) / Fold change /veh MYO3A (11730013_a_at) / RFU EBF3 (11725865_a_at) / Fold change /veh EBF3 (11725865_a_at) / RFU CAMK2N1 (11719241_x_at) / Fold change /veh CAMK2N1 (11719241_x_at) / RFU C5orf56 (11738088_a_at) / Fold change /veh C5orf56 (11738088_a_at) / RFU OLFML3 (11715873_a_at) / Fold change /veh OLFML3 (11715873_a_at) / RFU LOC100653217 /// NTM (11731650_a_at) / Fold change /veh LOC100653217 /// NTM (11731650_a_at) / RFU MAPK11 (11762145_a_at) / Fold change /veh MAPK11 (11762145_a_at) / RFU FIZ1 (11724087_x_at) / Fold change /veh FIZ1 (11724087_x_at) / RFU OASL (11726364_x_at) / Fold change /veh OASL (11726364_x_at) / RFU SOX15 (11748057_x_at) / Fold change /veh SOX15 (11748057_x_at) / RFU CD79A (11719716_a_at) / Fold change /veh CD79A (11719716_a_at) / RFU HIST1H1D (11736915_at) / Fold change /veh HIST1H1D (11736915_at) / RFU CASKIN2 (11723855_a_at) / Fold change /veh CASKIN2 (11723855_a_at) / RFU LOC730098 (11760151_x_at) / Fold change /veh LOC730098 (11760151_x_at) / RFU OR4N2 (11742367_at) / Fold change /veh OR4N2 (11742367_at) / RFU PRRT2 (11749266_a_at) / Fold change /veh PRRT2 (11749266_a_at) / RFU SNX32 (11753110_a_at) / Fold change /veh SNX32 (11753110_a_at) / RFU CDHR5 (11726645_a_at) / Fold change /veh CDHR5 (11726645_a_at) / RFU RCAN1 (11760418_a_at) / Fold change /veh RCAN1 (11760418_a_at) / RFU FAM167A (11723789_a_at) / Fold change /veh FAM167A (11723789_a_at) / RFU FAM26E (11764081_at) / Fold change /veh FAM26E (11764081_at) / RFU ISYNA1 (11749810_s_at) / Fold change /veh ISYNA1 (11749810_s_at) / RFU ACY1 (11761880_at) / Fold change /veh ACY1 (11761880_at) / RFU 11764098_at / Fold change /veh 11764098_at / RFU SAMD14 (11745864_x_at) / Fold change /veh SAMD14 (11745864_x_at) / RFU NPB (11741838_a_at) / Fold change /veh NPB (11741838_a_at) / RFU TMPRSS6 (11731388_a_at) / Fold change /veh TMPRSS6 (11731388_a_at) / RFU KRTAP10-2 (11738614_at) / Fold change /veh KRTAP10-2 (11738614_at) / RFU ARHGAP8 /// PRR5-ARHGAP8 (11727945_x_at) / Fold change /veh ARHGAP8 /// PRR5-ARHGAP8 (11727945_x_at) / RFU KRTAP5-7 /// NADSYN1 (11734609_at) / Fold change /veh KRTAP5-7 /// NADSYN1 (11734609_at) / RFU RASL12 (11751679_a_at) / Fold change /veh RASL12 (11751679_a_at) / RFU CDKN2B (11736163_a_at) / Fold change /veh CDKN2B (11736163_a_at) / RFU PRF1 (11729649_at) / Fold change /veh PRF1 (11729649_at) / RFU, ZNF638 /// ZNF638-IT1 / Fold change vs veh, ZNF638 /// ZNF638-IT1 / RFU, PANK3 / Fold change vs veh, PANK3 / RFU, SH3YL1 / Fold change vs veh, SH3YL1 / RFU, ZEB2 / Fold change vs veh, ZEB2 / RFU, NRIP1 / Fold change vs veh, NRIP1 / RFU, PTTG1IP / Fold change vs veh, PTTG1IP / RFU, CAPN2 / Fold change vs veh, CAPN2 / RFU, MED14 / Fold change vs veh, MED14 / RFU, SNORA58 / Fold change vs veh, SNORA58 / RFU, C1orf63 / Fold change vs veh, C1orf63 / RFU, LRRFIP1 / Fold change vs veh, LRRFIP1 / RFU, NDUFAF7 / Fold change vs veh, NDUFAF7 / RFU, SLC12A2 / Fold change vs veh, SLC12A2 / RFU, IBTK / Fold change vs veh, IBTK / RFU, ESF1 / Fold change vs veh, ESF1 / Fold change vs veh, TMEM50B / RFU, TAOK1 / Fold change vs veh, TAOK1 / RFU, ACBD3 / Fold change vs veh, ACBD3 / RFU, TMA16 / Fold change vs veh, TMA16 / RFU, RWDD3 / Fold change vs veh, RWDD3 / RFU, BCAT1 / Fold change vs veh, BCAT1 / RFU, EDEM3 / Fold change vs veh, EDEM3 / RFU, TMEM33 / Fold change vs veh, TMEM33 / RFU, WDR75 / Fold change vs veh, WDR75 / RFU, AHCTF1 / Fold change vs veh, AHCTF1 / RFU, TFRC / Fold change vs veh, TFRC / RFU, ZDHHC17 / Fold change vs veh, ZDHHC17 / RFU, NOM1 / Fold change vs veh, NOM1 / RFU, ARL8B / Fold change vs veh, ARL8B / RFU, ZBTB11 / Fold change vs veh, ZBTB11 / RFU, TAMM41 / Fold change vs veh, TAMM41 / RFU, KIAA1704 /// LOC100996395 / Fold change vs veh, KIAA1704 /// LOC100996395 / RFU, ING1 / Fold change vs veh, ING1 / RFU, TRMT61B / Fold change vs veh, TRMT61B / RFU, FUBP3 / Fold change vs veh, FUBP3 / RFU, TP53 / Fold change vs veh, TP53 / RFU, TNKS2 / Fold change vs veh, TNKS2 / RFU, ZFP14 / Fold change vs veh, ZFP14 / RFU, ACTR2 / Fold change vs veh, ACTR2 / RFU, PPP3R1 / Fold change vs veh, PPP3R1 / RFU, PIK3R1 / Fold change vs veh, PIK3R1 / RFU, HNRNPA1 / Fold change vs veh, HNRNPA1 / RFU, RNF170 / Fold change vs veh, RNF170 / RFU, ZNF28 / Fold change vs veh, ZNF28 / RFU, RNGTT / Fold change vs veh, RNGTT / RFU, OGT / Fold change vs veh, OGT / RFU, BRD1 / Fold change vs veh, BRD1 / RFU, MARS / Fold change vs veh, MARS / RFU, ZNF655 / Fold change vs veh, ZNF655 / RFU, FAHD1 / Fold change vs veh, FAHD1 / RFU, BDP1 / Fold change vs veh, BDP1 / RFU, LRRCC1 / Fold change vs veh, LRRCC1 / RFU, ARID1A / Fold change vs veh, ARID1A / RFU, ZNF146 / Fold change vs veh, ZNF146 / RFU, ZNF330 / Fold change vs veh, ZNF330 / RFU, GPN3 / Fold change vs veh, GPN3 / RFU, C9orf123 / Fold change vs veh, C9orf123 / RFU, N4BP2L2 / Fold change vs veh, N4BP2L2 / RFU, ARFIP1 / Fold change vs veh, ARFIP1 / RFU, FAM179B / Fold change vs veh, FAM179B / RFU, BCL10 / Fold change vs veh, BCL10 / RFU, UHRF1BP1L / Fold change vs veh, UHRF1BP1L / RFU, BET1 / Fold change vs veh, BET1 / RFU, CNOT2 / Fold change vs veh, CNOT2 / RFU, ZNF268 / Fold change vs veh, ZNF268 / Fold change vs veh, ZNF507 / RFU, DGCR2 / Fold change vs veh, DGCR2 / RFU, WDSUB1 / Fold change vs veh, WDSUB1 / Fold change vs veh, HSP90B1 /// MIR3652 / RFU, ADSS / Fold change vs veh, ADSS / RFU, GK / Fold change vs veh, GK / RFU, ZNF148 / Fold change vs veh, ZNF148 / RFU, TAF9 / Fold change vs veh, TAF9 / RFU, SLC1A5 / Fold change vs veh, SLC1A5 / RFU, SLMO2 / Fold change vs veh, SLMO2 / RFU, ABCC4 / Fold change vs veh, ABCC4 / RFU, LOC101060439 /// RAP1B / Fold change vs veh, LOC101060439 /// RAP1B / RFU, RFX7 / Fold change vs veh, RFX7 / RFU, GTPBP10 / Fold change vs veh, GTPBP10 / RFU, CNEP1R1 / Fold change vs veh, CNEP1R1 / RFU, BIVM-ERCC5 /// ERCC5 / Fold change vs veh, BIVM-ERCC5 /// ERCC5 / RFU, ILF3 / Fold change vs veh, ILF3 / RFU 11762660_at / Fold change /veh 11762660_at / RFU VCAN (11757783_s_at) / Fold change /veh VCAN (11757783_s_at) / RFU DDX43 (11728927_at) / Fold change /veh DDX43 (11728927_at) / RFU KRT8 (11758188_x_at) / Fold change /veh KRT8 (11758188_x_at) / RFU NKD1 (11759106_at) / Fold change /veh NKD1 (11759106_at) / RFU SRD5A1 (11742802_a_at) / Fold change /veh SRD5A1 (11742802_a_at) / RFU TPSAB1 /// TPSB2 (11721975_s_at) / Fold change /veh TPSAB1 /// TPSB2 (11721975_s_at) / RFU GSTM3 (11746129_a_at) / Fold change /veh GSTM3 (11746129_a_at) / RFU IL23R (11737362_x_at) / Fold change /veh IL23R (11737362_x_at) / RFU TMEM51 (11727254_a_at) / Fold change /veh TMEM51 (11727254_a_at) / RFU PIWIL2 (11732686_x_at) / Fold change /veh PIWIL2 (11732686_x_at) / RFU ORM1 (11744905_x_at) / Fold change /veh ORM1 (11744905_x_at) / RFU CCDC152 (11743942_at) / Fold change /veh CCDC152 (11743942_at) / RFU ECM1 (11717891_a_at) / Fold change /veh ECM1 (11717891_a_at) / RFU IL23R (11748794_a_at) / Fold change /veh IL23R (11748794_a_at) / RFU TNFAIP8L3 (11732012_x_at) / Fold change /veh TNFAIP8L3 (11732012_x_at) / RFU MBOAT4 (11741988_at) / Fold change /veh MBOAT4 (11741988_at) / RFU 11764193_at / Fold change /veh 11764193_at / RFU TMEM53 (11763286_at) / Fold change /veh TMEM53 (11763286_at) / RFU MAGEB2 (11727129_at) / Fold change /veh MAGEB2 (11727129_at) / RFU TMEM200A (11744735_a_at) / Fold change /veh TMEM200A (11744735_a_at) / RFU CCDC152 (11751479_a_at) / Fold change /veh CCDC152 (11751479_a_at) / RFU FAM211A (11726209_a_at) / Fold change /veh FAM211A (11726209_a_at) / RFU RGS16 (11746705_a_at) / Fold change /veh RGS16 (11746705_a_at) / RFU VCAN (11755009_s_at) / Fold change /veh VCAN (11755009_s_at) / RFU RHOB (11743442_s_at) / Fold change /veh RHOB (11743442_s_at) / RFU RGS16 (11720943_a_at) / Fold change /veh RGS16 (11720943_a_at) / RFU RGS16 (11720944_at) / Fold change /veh RGS16 (11720944_at) / RFU, VPS4B / Fold change vs veh, VPS4B / RFU, CREB1 / Fold change vs veh, CREB1 / RFU, DNAJC13 / Fold change vs veh, DNAJC13 / RFU, GNAQ / Fold change vs veh, GNAQ / RFU, CDK5R1 / Fold change vs veh, CDK5R1 / RFU, ZRANB3 / Fold change vs veh, ZRANB3 / RFU, CUL4A / Fold change vs veh, CUL4A / RFU, CCNY / Fold change vs veh, CCNY / RFU, UFL1 / Fold change vs veh, UFL1 / RFU, COG3 / Fold change vs veh, COG3 / RFU, DIAPH2 / Fold change vs veh, DIAPH2 / RFU, SKA2 / Fold change vs veh, SKA2 / RFU, AFF3 / Fold change vs veh, AFF3 / RFU, LMF1 / Fold change vs veh, LMF1 / RFU, IPO11 / Fold change vs veh, IPO11 / RFU, DFFB / Fold change vs veh, DFFB / RFU, FOXP1 / Fold change vs veh, FOXP1 / RFU, CARD8 / Fold change vs veh, CARD8 / RFU, STRN3 / Fold change vs veh, STRN3 / RFU, ADK / Fold change vs veh, ADK / RFU, RASSF2 / Fold change vs veh, RASSF2 / RFU, WIPF1 / Fold change vs veh, WIPF1 / RFU, LARP1B / Fold change vs veh, LARP1B / RFU, RASA1 / Fold change vs veh, RASA1 / RFU, RB1 / Fold change vs veh, RB1 / RFU, PPFIA1 / Fold change vs veh, PPFIA1 / RFU, MAT2A / Fold change vs veh, MAT2A / RFU, CCT5 / Fold change vs veh, CCT5 / RFU, WDR92 / Fold change vs veh, WDR92 / RFU, CUX1 / Fold change vs veh, CUX1 / RFU, TTC7A / Fold change vs veh, TTC7A / RFU, TMEM135 / Fold change vs veh, TMEM135 / RFU, DEPTOR / Fold change vs veh, DEPTOR / RFU, CPM / Fold change vs veh, CPM / RFU, DNAJB6 / Fold change vs veh, DNAJB6 / RFU, CACNA2D3 / Fold change vs veh, CACNA2D3 / RFU, DTX4 / Fold change vs veh, DTX4 / RFU, TFCP2 / Fold change vs veh, TFCP2 / RFU, GMCL1 /// GMCL1P1 / Fold change vs veh, GMCL1 /// GMCL1P1 / RFU, AEBP2 / Fold change vs veh, AEBP2 / RFU, SNHG1 /// SNORD22 /// SNORD25 /// SNORD26 /// SNORD27 /// SNORD28 /// SNORD29 /// SNORD31 / Fold change vs veh, SNHG1 /// SNORD22 /// SNORD25 /// SNORD26 /// SNORD27 /// SNORD28 /// SNORD29 /// SNORD31 / Fold change (Aza/veh), C12orf56 (ProbeSet 11735607_a_at) / Fold change (ACY-1035/veh), C12orf56 (ProbeSet 11735607_a_at) / Fold change (Aza/veh), FGFR1OP (ProbeSet 11751329_s_at) / Fold change (ACY-1035/veh), FGFR1OP (ProbeSet 11751329_s_at) / Fold change (Aza/veh), VPS36 (ProbeSet 11739960_a_at) / Fold change (ACY-1035/veh), VPS36 (ProbeSet 11739960_a_at) / RFU SYPL1 (11715823_x_at) / Fold change /veh SYPL1 (11715823_x_at) / RFU IGFBP7 (11715501_s_at) / Fold change /veh IGFBP7 (11715501_s_at) / RFU REEP3 (11722064_at) / Fold change /veh REEP3 (11722064_at) / RFU IGLL1 (11728026_x_at) / Fold change /veh IGLL1 (11728026_x_at): dose or concentration left out as unconfirmed
Conditions: ProbeSet 11748335_a_at; LIST B

## Nc1ccc(-c2cccs2)cc1NC(=O)c1ccc2c(c1)cc(C1CC1)n2CCN1CCOCC1 [ACY-1035]
  Fold change vs veh, SLMO2: 0.88
